According to patent US9434695B2, “Nitrogenous heterocyclic derivatives and their application in drugs” (SUNSHINE LAKE PHARMA CO., LTD., priority 2012, dated 2016):

Tests used:
[1] = tested on: BHK-21 cells; experiment: inhibition of BHK-21 cell proliferation (CCK-8, optical density at 450 nm); format: cell-based; details: for IC50: Mesocricetus auratus, inhibition ratio of cell proliferation, 48 hours after dosing, CCK-8; for The ratio with PFD (multiple): ratio of Pirfenidone IC50 from the compound IC50, the bigger the multiple, the better the vitro inhibitory activity, 48 hours
Protocol: Taking BHK-21 cells which in exponential growth phase, collecting and counting the cells which had digestive transfer culture after fusion growth 85-95%, adjusting the cell density to 2×10^4 cells per milliliter, seeding the cells into 96-well plates, 100 μl/well, the cells were incubated in a 5% CO2 incubator at 37° C.
The upper clear liquid of the 96-well plates was removed after the cells adhering to the wall 24 hours. The above compounds were confected into solutions of different concentration and the solutions were added to the wells, 100 μl/well. Each concentration solution in 3 replicates, the cells were subcultured 48 hours after dosing.
3. Testing the Optical Density
10 μl of CCK-8 solution was added to each well 48 hours after dosing, and incubated for 2 hours. The optical density (A) of each well was determined by a microplate reader at 450 nm wavelength. Calculating the inhibition ratio of cell proliferation of each compound is based on A and the inhibition ratio of cell proliferation (inhibition ratio, IR)=(1−value of experimental group (Ai)/value of control group (Ao))×100% and the IC50 of each compound at 48 hours was calculated by data processing software.

[2] = tested on: ECM gathering; details: animal experiments of renal fibrosis, pulmonary fibrosis; clinical trials of patients with specific lung fibrosis; cited from earlier work

Row | Compound | IC50 [1] [µM] | The ratio with PFD (multiple) [1] [multiple] | effect on ECM gathering [2]
1 | Cc1cc(=O)n(-c2ccc(N3CCOCC3)c(C(F)(F)F)c2)c(C)n1 [Example 47, 2,6-dimethyl-3-(4-morpholino-3-(trifluoromethyl)phenyl)pyrimidin-4(3H)-one] | 930 | 3.92 | –
2 | Cc1cc(=O)n(-c2ccc3ccn(COc4cccc(C#N)c4)c3c2)c(C)n1 [Example 48, 3-((6-(2,4-dimethyl-6-oxopyrimidin-1(6H)-yl)-1H-indol-1-yl)methoxy)benzonitrile] | 350 | 10.60 | –
3 | Cc1cc(=O)n(-c2ccc(N3CCOCC3)c(F)c2)c(COc2ccc(F)c(F)c2)n1 [Example 49, 2-((3,4-difluorophenoxy)methyl)-3-(3-fluoro-4-morpholinophenyl)-6-methylpyrimidin-4(3H)-one] | 70 | 35.52 | –
4 | Cc1cc(=O)n(-c2ccc(N3CCOCC3)c(F)c2)c(COc2cc(F)cc(F)c2)n1 [Example 50, 2-((3,5-difluorophenoxy)methyl)-3-(3-fluoro-4-morpholinophenyl)-6-methylpyrimidin-4(3H)-one] | 60 | 42.93 | –
5 | Cc1cc(=O)n(-c2ccc(N3CCOCC3)c(F)c2)c(CSc2cccc(F)c2)n1 [Example 51, 3-(3-fluoro-4-morpholinophenyl)-2-(((3-fluorophenyl)thio)methyl)-6-methylpyrimidin-4(3H)-one] | 100 | 25.14 | –
6 | Cc1cc(=O)n(-c2ccc(N3CCOCC3)c(F)c2)c(CCc2cccc(F)c2)n1 [Example 52, 3-(3-fluoro-4-morpholinophenyl)-2-(3-fluorophenethyl)-6-methylpyrimidin-4(3H)-one] | 180 | 14.15 | –
7 | Cc1cc(=O)n(-c2ccc(N3CCOCC3)c(F)c2)c(CCCOc2cccc(F)c2)n1 [Example 53, 3-(3-fluoro-4-morpholinophenyl)-2-(3-(3-fluorophenoxy)propyl)-6-methylpyrimidin-4(3H)-one] | 500 | 15.49 | –
8 | Cc1cc(=O)n(-c2ccc(N3CCN(C)CC3)c(F)c2)c(COc2cccc(F)c2)n1 [Example 55, 3-(3-fluoro-4-(4-methylpiperazin-1-yl)phenyl)-2-((3-fluorophenoxy)methyl)-6-methylpyrimidin-4(3H)-one] | 50 | 46.92 | –
9 | Cc1cc(=O)n(-c2ccc(OCCN3CCOCC3)c(F)c2)c(COc2cccc(F)c2)n1 [Example 56, 3-(3-fluoro-4-(2-morpholinoethoxy)phenyl)-2-((3-fluorophenoxy)methyl)-6-methylpyrimidin-4(3H)-one] | 100 | 54.14 | –
10 | Cc1cc(=O)n(-c2ccc(NCCN3CCOCC3)c(F)c2)c(COc2cccc(F)c2)n1 [Example 57, 3-(3-fluoro-4-((2-morpholinoethyl)amino)phenyl)-2-((3-fluorophenoxy)methyl)-6-methylpyrimidin-4(3H)-one] | 100 | 84.22 | –
11 | Cc1cc(=O)n(-c2ccc(N3CCOCC3)c(F)c2)c(COC2CCCCC2)n1 [Example 58, 2-((cyclohexyloxy)methyl)-3-(3-fluoro-4-morpholinophenyl)-6-methylpyrimidin-4(3H)-one] | 290 | 26.37 | –
12 | Cc1cc(=O)n(-c2ccc(N3CCOCC3)c(F)c2)c(COc2cccnc2)n1 [Example 59, 3-(3-fluoro-4-morpholinophenyl)-6-methyl-2-((pyridin-3-yloxy)methyl)pyrimidin-4(3H)-one] | 300 | 25.50 | –
13 | Cc1cc(=O)n(-c2ccc(N3CCOCC3)c(F)c2)c(COc2cncc(F)c2)n1 [Example 60, 3-(3-fluoro-4-morpholinophenyl)-2-(((5-fluoropyridin-3-yl)oxy)methyl)-6-methylpyrimidin-4(3H)-one] | 540 | 13.72 | –
14 | CCCCCCN(CCCCCC)c1ccc(-n2c(COc3cccc(F)c3)nc(C)cc2=O)cc1F [Example 62, 3-(4-(dihexylamino)-3-fluorophenyl)-2-((3-fluorophenoxy)methyl)-6-methylpyrimidin-4(3H)-one] | 310 | 24.68 | –
15 | Cc1cc(=O)n(-c2ccc(N3CCOCC3)c(Cl)c2)c(COc2cccc(F)c2)n1 [Example 63, 3-(3-chloro-4-morpholinophenyl)-2-((3-fluorophenoxy)methyl)-6-methylpyrimidin-4(3H)-one] | 40 | 47.43 | –
16 | Cc1cc(=O)n(-c2ccc(N3CCOCC3)c(Cl)c2)c(COc2cccc(Cl)c2)n1 [Example 64, 3-(3-chloro-4-morpholinophenyl)-2-((3-chlorophenoxy)methyl)-6-methylpyrimidin-4(3H)-one] | 190 | 10.69 | –
17 | Cc1cc(=O)n(-c2ccc(N3CCOCC3)c(Cl)c2)c(COc2cccc(C#N)c2)n1 [Example 65, 3-((1-(3-chloro-4-morpholinophenyl)-4-methyl-6-oxo-1,6-dihydropyrimidin-2-yl)methoxy)benzonitrile] | 20 | 119.61 | –
18 | Cc1cc(=O)n(-c2ccc(N3CCOCC3=O)c(F)c2)c(COc2cccc(F)c2)n1 [Example 66, 4-(2-fluoro-4-(2-((3-fluorophenoxy)methyl)-4-methyl-6-oxopyrimidin-1(6H)-yl)phenyl) morpholin-3-one] | 230 | 14.95 | –
19 | Cc1cc(=O)n(-c2ccc(N3CCOCC3)c(Cl)c2)c(COc2ccc(Cl)c3ccccc23)n1 [Example 67] | 140 | 25.09 | –
20 | C#Cc1cccc(OCc2nc(C)cc(=O)n2-c2ccc(N3CCOCC3)c(F)c2)c1 [Example 68] | 110 | 26.80 | –
21 | Cc1cc(=O)n(-c2ccc(N3CCOCC3)c(F)c2)c(C(F)(F)Oc2cccc(F)c2)n1 [Example 69, 2-(difluoro(3-fluorophenoxy)methyl)-3-(3-fluoro-4-morpholinophenyl)-6-methylpyrimidin-4(3H)-one] | 90 | 42.03 | –
22 | COc1cccc(OCc2nc(C)cc(=O)n2-c2ccc(N3CCOCC3)c(F)c2)c1 [Example 71, 3-(3-fluoro-4-morpholinophenyl)-2-((3-methoxyphenoxy)methyl)-6-methylpyrimidin-4(3H)-one] | 80 | 48.76 | –
23 | Cc1ccc(=O)n(-c2ccccc2)c1 [pirfenidone, 5-methyl-1-phenyl-2-(1H)-pyridone] | – | – | could prevent ECM gathering, or even reverse it
